# Reference: US20100003246A1, “Novel heterocyclic compounds and uses therof” (priority 2008, published 2010)
# Molecular target: T1, b-Raf(V600E) (Homo sapiens, UniProt P15056, V600E)
# T1 construct: made in house
# Assay: Raf/Mek Amplified Luminescence Proximity Homogeneous Assay (Alpha Screen), b-Raf(V600E)
# Type: biochemical
# Conditions: mutant b-Raf(V600E), read-out: mut-b-RAF (IC50 in uM)
# Experimental: Assay buffer: 50 mM Tris, pH 7.5, 15 mM MgCl2, 0.01% BSA, 1 mM DTT Stop buffer: 60 mM EDTA, 0.01% Tween20 Bead buffer: 50 mM Tris, pH 7.5, 0.01% Tween20
# b-Raf(V600E), active: Recombinant in-house material biotinylated Mek, kinase dead: Recombinant in-house material Alpha Screen detection kit PerkinElmer, #6760617R Anti phospho-MEK½ Cell signaling #9121 384 well assay plates: White Greiner plates, #781207
# b-Raf(V600E) approximately 4 pM c-Raf approximately 4 nM biotinylated Mek, Kinase dead approximately 10 nM
# Pre-incubation time with compounds 60 min at room temperature Reaction time 1 or 3 hours at room temperature
# Raf and biotinylated Mek, kinase dead, were combined at 2× final concentrations in assay buffer (50 mM Tris, pH 7.5, 15 mM MgCl2, 0.01% BSA and 1 mM DTT) and dispensed 10 μl per well in assay plates (Greiner white 384 well assay plates #781207) containing 0.5 μl of 40× of a raf kinase inhibitor test compound diluted in 100% DMSO. The plate was incubated for 60 min at room temperature.
# The Raf kinase activity reaction was started by the addition of 10 μl per well of 2×ATP diluted in assay buffer. After 3 hours (bRaf(V600E)) or 1 hour (c-Raf), the reactions were stopped with the addition of 10 μl of stop reagent (60 mM EDTA). Phosphorylated product was measured using a rabbit anti-p-MEK (Cell Signaling, #9121) antibody and the Alpha Screen IgG (Protein A) detection Kit (PerkinElmer #6760617R), by the addition of 30 μL to the well of a mixture of the antibody (1:2000 dilution) and detection beads (1:2000 dilution of both beads) in bead buffer (50 mM Tris, pH 7.5, 0.01% Tween20). The additions were carried out under dark conditions to protect the detection beads from light. A lid was placed on top of the plate and incubated for 1 hour at room temperature, then the luminescence was read on a PerkinElmer Envision instrument. The concentration of each compound for 50% inhibition (IC50) was calculated by non-linear regression using XL Fit data analysis software.
# The Raf/Mek Amplified Luminescence Proximity Homogeneous Assay described was used to generate the luminescence and mutant b-Raf(V600E) IC50 data for selected Raf Kinase Inhibitors shown in Table 1 above.
# T1 sequence (P15056 whole entry V600E): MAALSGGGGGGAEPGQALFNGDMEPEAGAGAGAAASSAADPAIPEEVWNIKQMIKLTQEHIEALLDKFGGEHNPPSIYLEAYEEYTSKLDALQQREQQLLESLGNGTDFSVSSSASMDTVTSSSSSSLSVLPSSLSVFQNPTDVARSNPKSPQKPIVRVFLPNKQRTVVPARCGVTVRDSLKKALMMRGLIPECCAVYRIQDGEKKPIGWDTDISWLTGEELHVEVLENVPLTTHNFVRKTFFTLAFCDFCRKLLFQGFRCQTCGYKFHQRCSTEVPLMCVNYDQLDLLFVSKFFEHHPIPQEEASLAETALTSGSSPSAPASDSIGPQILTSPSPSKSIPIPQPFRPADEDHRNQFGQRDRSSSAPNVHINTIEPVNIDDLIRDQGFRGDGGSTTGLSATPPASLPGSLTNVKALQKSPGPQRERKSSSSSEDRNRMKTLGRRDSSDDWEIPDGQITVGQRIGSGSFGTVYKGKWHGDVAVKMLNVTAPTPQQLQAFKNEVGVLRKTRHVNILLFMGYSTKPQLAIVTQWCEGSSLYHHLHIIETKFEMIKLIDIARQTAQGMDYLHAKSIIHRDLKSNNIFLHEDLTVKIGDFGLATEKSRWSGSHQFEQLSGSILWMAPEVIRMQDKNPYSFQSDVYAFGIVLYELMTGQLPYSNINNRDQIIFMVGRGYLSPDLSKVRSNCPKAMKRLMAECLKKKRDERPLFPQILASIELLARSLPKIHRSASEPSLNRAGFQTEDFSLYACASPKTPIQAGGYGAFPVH
row,SMILES,IC50
1,"COc1cc(-c2[nH]c(-c3ccccc3)nc2-c2ccnc(NCCNS(C)(=O)=O)n2)cnc1N [Compound 99, N-(2-(4-(5-(6-amino-5-methoxypyridin-3-yl)-2-phenyl-1H-imidazol-4-yl)pyrimidin-2-ylamino)ethyl)methanesul-fonamide]",0.0001 µM
2,"COCC(=O)N1CCC[C@@H](Nc2nccc(-c3nc(-c4ccc(F)cc4)[nH]c3-c3cnc(N)c(OC)c3)n2)C1 [Compound 100, (R)-1-(3-(4-(5-(6-amino-5-methoxypyridin-3-yl)-2-(4-fluorophenyl)-1H-imidazol-4-yl)pyrimidin-2-ylamino)piperidin-1-yl)-2-methoxyethanone]",0.0259 µM
3,"COC(=O)c1cccc(-c2nc(-c3ccncc3)c(-c3cnc(N)c(OC)c3)[nH]2)c1 [Compound 101, methyl 3-(5-(6-amino-5-methoxypyridin-3-yl)-4-(pyridin-4-yl)-1H-imidazol-2-yl)benzoate]",0.0013 µM
4,"COc1cc(-c2[nH]c(-c3cccc(C#N)c3)nc2-c2ccncc2)cnc1N [Compound 102, 3-(5-(6-amino-5-methoxypyridin-3-yl)-4-(pyridin-4-yl)-1H-imidazol-2-yl)benzonitrile]",0.0011 µM
5,"COC(=O)c1ccc(-c2nc(-c3ccncc3)c(-c3cnc(N)c(OC)c3)[nH]2)cc1 [Compound 103, methyl 4-(5-(6-amino-5-methoxypyridin-3-yl)-4-(pyridin-4-yl)-1H-imidazol-2-yl)benzoate]",0.0007 µM
6,"COc1cc(-c2[nH]c(-c3ccc(C#N)cc3)nc2-c2ccncc2)cnc1N [Compound 104, 4-(5-(6-amino-5-methoxypyridin-3-yl)-4-(pyridin-4-yl)-1H-imidazol-2-yl)benzonitrile]",0.0014 µM
7,"CCc1cc(-c2[nH]c(-c3ccc(F)cc3)nc2-c2ccncc2)cnc1N [Compound 105, 3-ethyl-5-(2-(4-fluorophenyl)-4-(pyridin-4-yl)-1H-imidazol-5-yl)pyridin-2-amine]",0.215 µM
8,"COc1ccc(-c2nc(-c3ccncc3)c(-c3cnc(N)c(OC)c3)[nH]2)cc1OC [Compound 107, 5-(2-(3,4-dimethoxyphenyl)-4-(pyridin-4-yl)-1H-imidazol-5-yl)-3-methoxypyridin-2-amine]",0.0007 µM
9,"COc1ccc(-c2nc(-c3ccncc3)c(-c3cnc(N)c(OC)c3)[nH]2)cc1F [Compound 108, 5-(2-(3-fluoro-4-methoxyphenyl)-4-(pyridin-4-yl)-1H-imidazo-5-yl)-3-methoxypyridin-2-amine]",0.0007 µM
10,"COc1cc(-c2[nH]c(-c3ccc(F)c(F)c3)nc2-c2ccncc2)cnc1N [Compound 109, 5-(2-(3,4-difluorophenyl)-4-(pyridin-4-yl)-1H-imidazol-5-yl)-3-methoxypyridin-2-amine]",0.0012 µM
11,"COc1cc(-c2[nH]c(-c3cccc(C)c3)nc2-c2ccncc2)cnc1N [Compound 110, 3-methoxy-5-(4-(pyridin-4-yl)-2-tolyl-1H-imidazol-5-yl)pyridin-2-amine]",0.0005 µM
12,"COc1cc(-c2nc(-c3ccc(F)cc3)[nH]c2-c2ccnc(F)c2)cnc1N [Compound 111, 5-(2-(4-fluorophenyl)-5-(2-fluoropyridin-4-yl)-1H-imidazol-4-yl)-3-methoxypyridin-2-amine]",0.0292 µM
13,"COc1cc(-c2[nH]c(-c3ccc(F)cc3)nc2-c2cnc(N)c(OC)c2)ccn1 [Compound 112, 5-(2-(4-fluorophenyl)-5-(2-methoxypyridin-4-yl)-1H-imidazol-4-yl)-3-methoxypyridin-2-amine]",0.737 µM
14,"COc1cc(-c2nc(C3=CCCCC3)[nH]c2-c2ccncc2)cnc1N [Compound 113, 5-(2-cyclohexenyl-5-(pyridin-4-yl)-1H-imidazol-4-yl)-3-methoxypyridin-2-amine]",0.0026 µM
15,COc1cc(-c2[nH]c(-c3ccc(OCCN(C)C)cc3)nc2-c2ccncc2)cnc1N [Compound 114],0.0064 µM
16,"COc1cc(-c2[nH]c(-c3cccc(C(C)C)c3)nc2-c2ccncc2)cnc1N [Compound 115, 5-(2-(3-isopropylphenyl)-4-(pyridin-4-yl)-1H-imidazol-5-yl)-3-methoxypyridin-2-amine]",0.003 µM
17,"COc1cc(-c2[nH]c(-c3cccc(OC)c3F)nc2-c2ccncc2)cnc1N [Compound 116, 5-(2-(2-fluoro-3-methoxyphenyl)-4-(pyridin-4-yl)-1H-imidazol-5-yl)-3-methoxypyridin-2-amine]",0.0017 µM
18,"COc1cc(-c2[nH]c(-c3ccc(C)c(F)c3)nc2-c2ccncc2)cnc1N [Compound 117, 5-(2-(3-fluoro-4-methylphenyl)-4-(pyridin-4-yl)-1H-imidazol-5-yl)-3-methoxypyridin-2-amine]",0.0007 µM
19,"COc1cc(-c2nc(C3CCCCC3)[nH]c2-c2ccncc2)cnc1N [Compound 118, 5-(2-cyclohexyl-5-(pyridin-4-yl)-1H-imidazol-4-yl)-3-methoxypyridin-2-amine]",0.002 µM
20,"COc1cc(-c2nc(-c3ccn(C)n3)[nH]c2-c2ccncc2)cnc1N [Compound 119, 3-methoxy-5-(2-(1-methyl-1H-pyrazol-3-yl)-5-(pyridin-4-yl)-1H-imidazol-4-yl)pyridin-2-amine]",0.0019 µM
21,"COc1cc(-c2[nH]c(-c3cccc(S(C)(=O)=O)c3)nc2-c2ccncc2)cnc1N [Compound 120, 3-methoxy-5-(2-(3-(methylsulfonyl)phenyl)-4-(pyridin-4-yl)-1H-imidazol-5-yl)pyridin-2-amine]",0.0088 µM
22,"COc1cc(-c2[nH]c(-c3ccc(S(N)(=O)=O)cc3)nc2-c2ccncc2)cnc1N [Compound 121, 4-(5-(6-amino-5-methoxypyridin-3-yl)-4-(pyridin-4-yl)-1H-imidazol-2-yl)benzenesulfonamide]",0.0017 µM
23,"COc1cc(-c2[nH]c(-c3cccc(C(N)=O)c3)nc2-c2ccncc2)cnc1N [Compound 122, 3-(5-(6-amino-5-methoxypyridin-3-yl)-4-(pyridin-4-yl)-1H-imidazol-2-yl)benzamide]",0.0021 µM
24,"COc1cc(-c2[nH]c(-c3cc(C(=O)N(C)C)ccc3F)nc2-c2ccncc2)cnc1N [Compound 124, 3-(5-(6-amino-5-methoxypyridin-3-yl)-4-(pyridin-4-yl)-1H-imidazol-2-yl)-4-fluoro-N,N-dimethylbenzamide]",0.0166 µM
25,"COc1cc(-c2[nH]c(-c3ccc(C(N)=O)cc3)nc2-c2ccncc2)cnc1N [Compound 126, 4-(5-(6-amino-5-methoxypyridin-3-yl)-4-(pyridin-4-yl)-1H-imidazol-2-yl)benzamide]",0.0035 µM
26,"COc1cc(-c2nc(C3=CCCC3)[nH]c2-c2ccncc2)cnc1N [Compound 127, 5-(2-cyclopentenyl-5-(pyridin-4-yl)-1H-imidazol-4-yl)-3-methoxypyridin-2-amine]",0.0018 µM
27,"COc1cc(-c2nc(C(C)(C)C)[nH]c2-c2ccncc2)cnc1N [Compound 128, 5-(2-tert-butyl-5-(pyridin-4-yl)-1H-imidazol-4-yl)-3-methoxypyridin-2-amine]",0.001 µM
28,"COc1cc(-c2[nH]c(-c3ccc(F)cc3)nc2-c2ccnc3[nH]ccc23)cnc1N [Compound 129, 5-(2-(4-fluorophenyl)-4-(1H-pyrrolo[2,3-b]pyridin-4-yl)-1H-imidazol-5-yl)-3-methoxypyridin-2-amine]",0.0088 µM
29,"Fc1ccc(-c2nc(-c3ccncc3)c(-c3ccc4ncnn4c3)[nH]2)cc1 [Compound 130, 6-(2-(4-fluorophenyl)-4-(pyridin-4-yl)-1H-imidazol-5-yl)-[1,2,4]triazolo[1,5-a]pyridine]",0.416 µM
